In the test the test system is MDA-MB 231 human breast carcinoma cells. Description: Tumor cell migration direction under interstitial flow in 3D collagen I gel. Format: cell-based. The note with it: Src kinase inhibited with PP2. An excerpt: Cell culture system design and verification of interstitial flow field. A microfluidic cell culture system to culture breast cancer cells (MDA-MB 231) in a 3D collagen I matrix and to subject these cells to a controlled level of interstitial flow was employed. The system consists of two channels separated by a region containing single cells suspended in collagen I gel (FIG. 16A). By applying a hydrostatic pressure gradient across the gel region, a consistent flow field is generated. FEM software was used to solve Brinkman's equation for flow through porous medium for our system geometry (FIG. 16B). […] From the bead tracking data, the hydraulic permeability of 2 mg/ml collagen I gel was determined to be 1.55×10-13 m2, similar to previously published values.
Interstitial flow induced a directional bias in cellular migration. […] To quantify the migration direction of cell populations, two metrics are presented. […] To determine directional bias of migration along streamlines, a “directional migration metric” was computed that scored cells with a +1 if they migrated in the direction of flow and a −1 if they migrated against the flow (FIG. 17E). […]
Cells were incubated overnight at 37° C. […] Devices were allowed to reach thermal equilibrium at 37° C. before imaging (see Supplementary Methods in SI Appendix for details on imaging and data quantification). […]

For `CC(C)(C)n1nc(-c2ccc(Cl)cc2)c2c(N)ncnc21` [PP2], the “direction of cell migration under interstitial flow” value is given as “cells migrated randomly, with no biased migration upstream or downstream”.

Source of the values: patent US20140057311A1, “Device For High Throughput Investigations Of Multi-Cellular Interactions” (priority 2010, published 2014).
